Laboratory results reported in EP1571449A1 (priority 2004, dated 2005).
Where two headings read alike, the source gives them in different places.

How the values were obtained:
plasma PrP^C = plasma PrP^C (Homo sapiens, UniProt P04156); settings: plasma mixed with 400 µM CuCl2, copper containing gradient, 16 h at 100,000 x g, 4 °C
PrP^C = PrP^C (Homo sapiens, UniProt P04156); format: binding

[Cl][Cu][Cl] [CuCl2]
migration pattern of PrP^C immunoreactivity in sucrose gradient (plasma PrP^C): the high molecular weight peak, present in EDTA plasma, disappeared
PrP^C detection, assay 2 (PrP^C): much more improved detection of PrP^C
PrP^C detection, assay 3 (PrP^C): slightly worse detection of PrP^C as compared to assay 2
effect on detection of bound prion proteins (assay sensitivity) (PrP^C; 15 min): improvement in sensitivity

O=S(=O)([O-])[O-].[Cu+2] [CuSO4]
dose relation of the effect on assay sensitivity (PrP^C): dose-related effects on the assay sensitivity
effect on detection of bound prion proteins (assay sensitivity) (PrP^C): improvement in sensitivity
increase in sensitivity (PrP^C): more than 3000 fold
plasma dilution at which twice the backgound signal was detected (PrP^C): 156250 times diluted

O=C(O)CN(CCN(CC(=O)O)CC(=O)O)CC(=O)O [EDTA, reference compound]
PrP^C detection, assay 4 (PrP^C): blocking effects
PrP^C detection, assay 5 (PrP^C): complete inhibition of the copper effects
PrP^C detection, assay 6 (PrP^C): the copper-induced changes of PrP^C disappeared
PrP^C detection, assay 7 (PrP^C): improved detection of PrP^C was observed
effect of EDTA on the copper-induced assay sensitivity increase (PrP^C): dose-related reduction of copper-induced assay sensitivity increase

OO [H2O2, hydrogen peroxide]
dose relation of the effect on assay sensitivity (PrP^C): dose-related effects on the assay sensitivity
effect on detection of bound prion proteins (assay sensitivity) (PrP^C): enhanced the detection of bound prion proteins

[Cl][Mn][Cl] [MnCl2]
effect on detection of bound prion proteins (assay sensitivity) (PrP^C): improvement in sensitivity
times higher concentration needed for the same signal increasing effect as compared to zinc (PrP^C): about 12 times

O=S(=O)([O-])[O-].[Zn+2] [ZnSO4]
effect on detection of bound prion proteins (assay sensitivity) (PrP^C): improvement in sensitivity

O=CO [formic acid]
effect on detection of bound prion proteins (assay sensitivity) (PrP^C): had no effect on the assay
